The NIST ThermoML archive (doi:10.1016/j.jct.2013.09.041)

Columns and labels:
[1] = 323.15 K, 101.33 kPa, Liquid; for speed of sound: Sing-around technique in a fixed-path interferometer; for mass density: Vibrating tube method
[2] = mn = molality of the nth substance listed, in mol/kg; details: 323.15 K, 101 kPa, Liquid, Vibrating tube method
[3] = osmotic coefficient (dimensionless); mn = molality of the nth substance listed, in mol/kg; details: 323.15 K, 101 kPa, Liquid, A Knauer K-7000 vapor pressure osmometer

CCCCCCn1cc[n+](C)c1.O=S(=O)([O-])C(F)(F)F [1-hexyl-3-methylimidazolium trifluoromethanesulfonate]
[1]
Details	mass density [kg/m3]	speed of sound [m/s]
–	1217.24	1327.2

CC(C)O [propan-2-ol]
[1]
Details	mass density [kg/m3]	speed of sound [m/s]
–	758.63	1050.9

CCCCCCn1cc[n+](C)c1.O=S(=O)([O-])C(F)(F)F [1-hexyl-3-methylimidazolium trifluoromethanesulfonate] + CCCCO
Details	mass density [kg/m3]	osmotic coefficient
[2], m1 = 0.052	791.18	–
[2], m1 = 0.103	795.76	–
[2], m1 = 0.152	799.99	–
[2], m1 = 0.202	804.23	–
[2], m1 = 0.254	808.45	–
[2], m1 = 0.303	812.46	–
[2], m1 = 0.353	816.43	–
[2], m1 = 0.405	820.46	–
[2], m1 = 0.448	823.73	–
[2], m1 = 0.504	827.88	–
[2], m1 = 0.598	834.75	–
[2], m1 = 0.701	841.92	–
[2], m1 = 0.792	848.08	–
[2], m1 = 0.906	855.49	–
[2], m1 = 1.01	861.88	–
[3], m1 = 0.028	–	0.828
[3], m1 = 0.045	–	0.721
[3], m1 = 0.114	–	0.599
[3], m1 = 0.198	–	0.543
[3], m1 = 0.302	–	0.482
[3], m1 = 0.427	–	0.453
[3], m1 = 0.526	–	0.434
[3], m1 = 0.81	–	0.399
[3], m1 = 1.224	–	0.356
[3], m1 = 1.64	–	0.339
[3], m1 = 2.045	–	0.329
[3], m1 = 2.417	–	0.313
[3], m1 = 2.827	–	0.298
[3], m1 = 3.312	–	0.282

CCC(C)O (stereo unspecified) [butan-2-ol]
[1]
Details	mass density [kg/m3]	speed of sound [m/s]
–	780.4	1120.2

CCCCO [butan-1-ol]
[1]
Details	mass density [kg/m3]	speed of sound [m/s]
–	786.32	1157.3

CCCCCCn1cc[n+](C)c1.O=S(=O)([O-])C(F)(F)F [1-hexyl-3-methylimidazolium trifluoromethanesulfonate] + CCC(C)O
Details	mass density [kg/m3]	osmotic coefficient
[2], m1 = 0.052	785.45	–
[2], m1 = 0.102	789.95	–
[2], m1 = 0.153	794.44	–
[2], m1 = 0.203	798.75	–
[2], m1 = 0.302	806.95	–
[2], m1 = 0.352	810.99	–
[2], m1 = 0.403	815.07	–
[2], m1 = 0.45	818.65	–
[2], m1 = 0.5029	822.68	–
[2], m1 = 0.597	829.6	–
[2], m1 = 0.7	836.92	–
[2], m1 = 0.797	843.69	–
[2], m1 = 0.907	850.73	–
[2], m1 = 1.002	856.64	–
[3], m1 = 0.056	–	0.823
[3], m1 = 0.079	–	0.797
[3], m1 = 0.107	–	0.76
[3], m1 = 0.215	–	0.626
[3], m1 = 0.296	–	0.576
[3], m1 = 0.401	–	0.513
[3], m1 = 0.513	–	0.487
[3], m1 = 0.809	–	0.426
[3], m1 = 1.206	–	0.393
[3], m1 = 1.608	–	0.38
[3], m1 = 2.032	–	0.362
[3], m1 = 2.426	–	0.351
[3], m1 = 2.776	–	0.342
[3], m1 = 3.311	–	0.337
[3], m1 = 3.703	–	0.332

CCCCCO [pentan-1-ol]
[1]
Details	mass density [kg/m3]	speed of sound [m/s]
–	792.14	1192.9

CCCCCCn1cc[n+](C)c1.O=S(=O)([O-])C(F)(F)F [1-hexyl-3-methylimidazolium trifluoromethanesulfonate] + CCCO
Details	mass density, [2] [kg/m3]	osmotic coefficient, [3]
m1 = 0.025	–	0.964
m1 = 0.051	783.95	0.866
m1 = 0.087	–	0.796
m1 = 0.102	788.64	–
m1 = 0.153	793.14	–
m1 = 0.214	–	0.685
m1 = 0.234	800.17	–
m1 = 0.296	805.3	–
m1 = 0.306	806.08	–
m1 = 0.308	–	0.645
m1 = 0.355	810.02	–
m1 = 0.401	813.72	–
m1 = 0.411	–	0.585
m1 = 0.448	817.38	–
m1 = 0.518	822.69	0.547
m1 = 0.62	830.19	–
m1 = 0.707	836.34	–
m1 = 0.804	843.03	–
m1 = 0.815	–	0.494
m1 = 0.905	849.7	–
m1 = 1.012	856.34	–
m1 = 1.223	–	0.462
m1 = 1.614	–	0.427
m1 = 2.029	–	0.408
m1 = 2.416	–	0.392
m1 = 2.82	–	0.373
m1 = 3.493	–	0.361

CCCCCCn1cc[n+](C)c1.O=S(=O)([O-])C(F)(F)F [1-hexyl-3-methylimidazolium trifluoromethanesulfonate] + CCCCCO
Details	mass density [kg/m3]	osmotic coefficient
[2], m1 = 0.05	796.7	–
[2], m1 = 0.1	801.05	–
[2], m1 = 0.151	805.37	–
[2], m1 = 0.202	809.6	–
[2], m1 = 0.254	813.84	–
[2], m1 = 0.3	817.52	–
[2], m1 = 0.401	825.41	–
[2], m1 = 0.498	832.62	–
[2], m1 = 0.61	840.59	–
[2], m1 = 0.705	847.05	–
[2], m1 = 0.803	853.55	–
[2], m1 = 0.849	856.48	–
[2], m1 = 1	865.7	–
[3], m1 = 0.053	–	0.784
[3], m1 = 0.084	–	0.599
[3], m1 = 0.108	–	0.51
[3], m1 = 0.194	–	0.44
[3], m1 = 0.313	–	0.392
[3], m1 = 0.415	–	0.345
[3], m1 = 0.512	–	0.331
[3], m1 = 0.829	–	0.299
[3], m1 = 1.216	–	0.293
[3], m1 = 1.64	–	0.276
[3], m1 = 2.047	–	0.27
[3], m1 = 2.461	–	0.255
[3], m1 = 2.845	–	0.244
[3], m1 = 3.322	–	0.226

CCCO [propan-1-ol]
[1]
Details	mass density [kg/m3]	speed of sound [m/s]
–	779.09	1121.8

CCCCCCn1cc[n+](C)c1.O=S(=O)([O-])C(F)(F)F [1-hexyl-3-methylimidazolium trifluoromethanesulfonate] + CC(C)O
Details	mass density [kg/m3]	osmotic coefficient
[2], m1 = 0.051	763.8	–
[2], m1 = 0.102	768.55	–
[2], m1 = 0.152	773.15	–
[2], m1 = 0.204	777.8	–
[2], m1 = 0.252	782.08	–
[2], m1 = 0.301	786.21	–
[2], m1 = 0.355	790.72	–
[2], m1 = 0.404	794.75	–
[2], m1 = 0.455	798.81	–
[2], m1 = 0.504	802.65	–
[2], m1 = 0.606	810.57	–
[2], m1 = 0.709	818.13	–
[2], m1 = 0.802	824.81	–
[2], m1 = 0.908	831.9	–
[2], m1 = 1.012	838.62	–
[3], m1 = 0.026	–	0.991
[3], m1 = 0.043	–	0.954
[3], m1 = 0.1	–	0.886
[3], m1 = 0.2	–	0.758
[3], m1 = 0.305	–	0.659
[3], m1 = 0.412	–	0.616
[3], m1 = 0.526	–	0.585
[3], m1 = 0.819	–	0.538
[3], m1 = 1.221	–	0.476
[3], m1 = 1.62	–	0.444
[3], m1 = 2.033	–	0.42
[3], m1 = 2.449	–	0.387
[3], m1 = 2.822	–	0.378
[3], m1 = 3.344	–	0.364
[3], m1 = 3.646	–	0.359
